Assay results: ChEMBL document CHEMBL6153138, “Discovery of Novel Aromatic Urea-Imidazole Salt Derivatives for Cancer Therapy via Targeting ERK1/2” (J Med Chem, 2025)
The source made the active and inactive calls. The rule behind the calls is not given here.

How the values were obtained:
MCF7 [1] = test: Induction of autophagy in human MCF7 cells assessed as increase in LC3B-II level at 1 uM by Western blot analysis; format: functional, cell-based
MCF7 [2] = test: Upregulation of caspase3 protein expression in human MCF-7 cells at 1 uM incubated for 6 hrs in presence of 3-methyladenine by Western blot analysis; format: functional, cell-based
MCF7 [3] = test: Activation of ERK1/2 pathway in human MCF7 cells assessed as increase in EGF-induced ERK phosphorylation at 2 uM incubated for 30 mins by Western blot analysis; format: cell-based; settings: filed as activator
[4] = Toxicity in female BALB/c mouse assessed as effect on lung at 25 to 50 mg/kg, po qd measured after 18 days by H and E staining based analysis; format: organism-based; settings: in vivo, 432 h, dose 25-50 mg/kg, time 18 day
MCF7 [5] = test: Induction of autophagic flux in human MCF7 cells assessed as decrease in p62 protein level at 0.5 to 2 uM incubated for 48 hrs by Western blotting analysis; format: functional, cell-based; settings: dose 0.5-2 µM
[6] = target: Mitogen-activated protein kinase 3 (Homo sapiens, UniProt P27361); test: Binding affinity to ERK1 (unknown origin) assessed as dissociation constant by MST analysis
Sequence of Mitogen-activated protein kinase 3 (P27361 whole entry): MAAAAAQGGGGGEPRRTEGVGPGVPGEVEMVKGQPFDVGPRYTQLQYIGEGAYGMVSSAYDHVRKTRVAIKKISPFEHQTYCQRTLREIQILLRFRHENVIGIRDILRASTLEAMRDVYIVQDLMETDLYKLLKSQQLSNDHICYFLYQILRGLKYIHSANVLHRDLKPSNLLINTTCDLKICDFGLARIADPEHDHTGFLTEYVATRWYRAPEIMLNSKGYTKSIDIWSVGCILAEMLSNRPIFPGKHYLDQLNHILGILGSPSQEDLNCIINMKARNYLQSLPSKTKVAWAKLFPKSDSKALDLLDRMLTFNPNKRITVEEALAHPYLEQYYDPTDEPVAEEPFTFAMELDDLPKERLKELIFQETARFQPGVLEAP

MCF7 [7] = test: Inhibition of colony formation in human MCF7 cells harbouring ERK2 knockout at 1 uM incubated for 48 hrs by crystal violet staining based microscopic analysis; format: functional, cell-based
MCF7 [8] = test: Induction of apoptosis in human MCF7 cells assessed as early apoptotic cells at 1 uM incubated for 48 hrs by Annexin V/FITC and PI staining based flow cytometry analysis (reference value: 1.1%); format: functional
[9] = Toxicity in female BALB/c mouse assessed as effect on liver at 25 to 50 mg/kg, po qd measured after 18 days by H and E staining based analysis; format: organism-based; settings: in vivo, 432 h, dose 25-50 mg/kg, time 18 day
MCF7 [10] = test: Inhibition of colony formation in human MCF7 cells harbouring ERK1 knockout at 1 uM incubated for 48 hrs by crystal violet staining based microscopic analysis; format: functional, cell-based
MCF7 [11] = test: Upregulation of ERK1/2 phosphorylation expression in human MCF7 cells at 2 uM measured after 8 hrs by Western blot analysis; format: functional, cell-based
MCF7 [12] = test: Upregulation of ERK1/2 phosphorylation expression in human MCF7 cells measured after 30 mins to 4 hrs by Western blot analysis; format: functional, cell-based; settings: dose 0.5-2 µM, time 30-240 min
MCF7 [13] = test: Induction of apoptosis in human MCF7 cells assessed as early apoptotic cells at 1 uM incubated for 48 hrs by Annexin V/FITC and PI staining based flow cytometry analysis (reference value: 6.64%); format: functional
MCF7 [14] = test: Induction of autophagic flux in human MCF7 cells assessed as colocalization of LAMP1 at 1 uM incubated for 48 hrs in presence of chloroquine by immunofluorescence analysis; format: functional, cell-based
MCF7 [15] = test: Induction of autophagy in human MCF7 cells assessed as increase in LC3B expression at 0.5 to 2 uM by immunofluorescence analysis; format: functional, cell-based; settings: dose 0.5-2 µM
[16] = AUC (0 to t) in Sprague-Dawley rat at 10 mg/kg, po by LC-MS/MS analysis; format: ADME, organism-based; settings: in vivo
MCF7 [17] = test: Induction of apoptosis in human MCF7 cells assessed as late apoptotic cells at 1 uM incubated for 48 hrs in presence of chloroquine by Annexin V/FITC and PI staining based flow cytometry analysis (reference value: 4.90%); format: functional
[18] = Toxicity in female BALB/c mouse assessed as change in body weight at 50 mg/kg, po qd measured after 18 days in presence of chloroquine; format: organism-based; settings: in vivo, 432 h, time 18 day
[19] = Toxicity in female BALB/c mouse assessed as effect on tumor at 50 mg/kg, po qd measured after 18 days in presence of chloroquine by H and E staining based analysis; format: organism-based; settings: in vivo, 432 h, time 18 day
MCF7 [20] = test: Induction of apoptosis in human MCF7 cells assessed as early apoptotic cells at 1 uM incubated for 48 hrs in presence of chloroquine by Annexin V/FITC and PI staining based flow cytometry analysis (reference value: 8.72%); format: functional
MCF7 [21] = test: Induction of autophagic flux in human MCF7 cells assessed as increase in LC3B-II expression at 1 uM incubated for 48 hrs in presence of chloroquine by Western blot analysis; format: functional, cell-based
MCF7 [22] = test: Induction of apoptosis in human MCF7 cells assessed as late apoptotic cells at 1 uM incubated for 48 hrs in presence of 3-methyladenine by Annexin V/FITC and PI staining based flow cytometry analysis (reference value: 6.21%); format: functional
[23] = Half life in Sprague-Dawley rat at 1 mg/kg, iv by LC-MS/MS analysis; format: ADME, organism-based; settings: in vivo
4T1-Luc = test: Anti-metastatic activity in mouse 4T1-Luc cells assessed as reduction in fluorescence intensity at 25 to 50 mg/kg, po measured after 16 days; format: functional, organism-based; settings: dose 25-50 mg/kg, time 16.0 day
4T1 [24] = test: Antitumor activity against mouse 4T1 cells implanted in female BALB/c mouse model assessed as tumor growth inhibition at 25 mg/kg, po qd measured for 18 days relative to control; format: functional; settings: 4T1, 432 h, time 18 day, read-out: TGI
4T1 [25] = test: Antitumor activity against mouse 4T1 cells implanted in female BALB/c mouse model assessed as tumor necrosis at 25 to 50 mg/kg, po qd measured for 18 days by H and E staining based analysis; format: functional, organism-based; settings: dose 25-50 mg/kg, time 18.0 day
4T1 [26] = test: Antitumor activity against mouse 4T1 cells implanted in female BALB/c mouse model assessed as reduction in PCNA expression at 50 mg/kg, po in presence of chloroquine by immunohistochemical analysis; format: functional, organism-based
MCF7 [27] = test: Activation of ERK1/2 pathway in human MCF7 cells assessed as increase in EGF-induced c-Myc phosphorylation at 2 uM incubated for 30 mins by Western blot analysis; format: cell-based
HCC1937 = test: Antiproliferative activity against human HCC1937 cells incubated for 48 hrs by CCK-8 method; format: functional, cell-based; settings: HCC1937, 48 h
MCF7 [28] = test: Induction of autophagy in human MCF7 cells assessed as upregulation of beclin1 expression incubated for 48 hrs by Western blotting analysis; format: functional, cell-based; settings: dose 0.5-2 µM
Mitochondrial membrane [29] = test: Induction of mitochondrial membrane potential loss in human MCF7 cells assessed as increase in JC-1 monomers by measuring increase in green fluorescence at 1 uM by flow cytometry analysis (reference value: 38.0%); format: cell membranes
MCF7 [30] = test: Induction of apoptosis in human MCF7 cells assessed as late apoptotic cells at 0.5 uM incubated for 48 hrs by Annexin V/FITC and PI staining based flow cytometry analysis (reference value: 2.5%); format: functional
Mitochondrial membrane [31] = test: Induction of mitochondrial membrane potential loss in human MCF7 cells assessed as reduction in JC-1 aggregates by measuring decrease in red fluorescence at 0.5 uM by flow cytometry analysis (reference value: 24.7%); format: cell membranes; set-up: scale not given: the % may be the effect or the level left
4T1 [32] = test: Antitumor activity against mouse 4T1 cells implanted in female BALB/c mouse model assessed as reduction in tumor weight at 50 mg/kg, po qd measured for 18 days in presence of chloroquine; format: functional, organism-based; settings: time 18.0 day
4T1 [33] = test: Antitumor activity against mouse 4T1 cells implanted in female BALB/c mouse model assessed as reduction in tumor growth administered po qd measured for 18 days; format: functional, organism-based; settings: dose 25-50 mg/kg, time 18.0 day

Question: For O=C(Nc1cc(C(F)(F)F)cc(C(F)(F)F)c1)N[C@@H](Cc1ccccc1)Cn1c[n+](Cc2ccc3ccccc3c2)c2ccccc21.[Br-], which Activity (MCF7 [1]) is on record?
Answer: Active

Question: And the Activity (MCF7 [2])?
Answer: Active

Question: What about the Activity (MCF7 [3]) of the same molecule?
Answer: Active

Question: And the Activity [4]?
Answer: Non-toxic

Question: And the Activity (MCF7 [5])?
Answer: Active

Question: And the Kd [6]?
Answer: 159 nM

Question: What about the inhibition (MCF7 [7]) of the same molecule?
Answer: inactive

Question: And the Activity (MCF7 [8])?
Answer: 11.6%

Question: What about the Activity [9] of the same molecule?
Answer: Non-toxic

Question: What about the inhibition (MCF7 [10]) of the same molecule?
Answer: inactive

Question: What about the Activity (MCF7 [11]) of the same molecule?
Answer: Active

Question: And the Activity (MCF7 [12])?
Answer: Dose-dependent-effect

Question: What about the Activity (MCF7 [13]) of the same molecule?
Answer: 4.58%

Question: What about the Activity (MCF7 [14]) of the same molecule?
Answer: Active

Question: What about the Activity (MCF7 [15]) of the same molecule?
Answer: Dose-dependent-effect

Question: And the AUC(0-t) [16]?
Answer: 3910 ng·h/mL

Question: And the Activity (MCF7 [17])?
Answer: 26.9%

Question: What about the Activity [18] of the same molecule?
Answer: Non-toxic

Question: And the Activity [19]?
Answer: Non-toxic

Question: What about the Activity (MCF7 [20]) of the same molecule?
Answer: 4.92%

Question: And the Activity (MCF7 [21])?
Answer: Active

Question: And the Activity (MCF7 [22])?
Answer: 25.1%

Question: What about the half-life [23] of the same molecule?
Answer: 3.15 h

Question: And the Activity (4T1-Luc)?
Answer: Active

Question: And the inhibition in vivo at 25 mg/kg (4T1 [24])?
Answer: 40.7%

Question: What about the Activity (4T1 [25]) of the same molecule?
Answer: Active

Question: What about the Activity (4T1 [26]) of the same molecule?
Answer: Active

Question: What about the Activity (MCF7 [27]) of the same molecule?
Answer: inactive

Question: What about the IC50 (HCC1937) of the same molecule?
Answer: 1680 nM

Question: What about the Activity (MCF7 [28]) of the same molecule?
Answer: Dose-dependent-effect

Question: And the Activity (Mitochondrial membrane [29])?
Answer: 48.9%

Question: And the Activity (MCF7 [30])?
Answer: 7.8%

Question: What about the Activity (Mitochondrial membrane [31]) of the same molecule?
Answer: 17.2%

Question: And the Activity (4T1 [32])?
Answer: Active

Question: What about the Activity (4T1 [33]) of the same molecule?
Answer: Dose-dependent-effect
